Structures can show the parent of a compound that is named as a salt.
Experiments:
Assay type in all cases: cell-based
Adenosine 1 receptor = target: T1, Adenosine 1 receptor (Homo sapiens, UniProt P30542); test: Agonist activity against adenosine 1 receptor subtype (CHO cells, forskolin-enhanced cAMP, SPAP reporter); conditions: EC50 ratio to NECA; transfected CHO cells, forskolin-enhanced cAMP reflected by SPAP
T1 construct: expressed in transfected cells; host or cells: Chinese hamster ovary (CHO) cells, co-transfected with a CRE-SPAP reporter
T1 sequence (P30542 1-326): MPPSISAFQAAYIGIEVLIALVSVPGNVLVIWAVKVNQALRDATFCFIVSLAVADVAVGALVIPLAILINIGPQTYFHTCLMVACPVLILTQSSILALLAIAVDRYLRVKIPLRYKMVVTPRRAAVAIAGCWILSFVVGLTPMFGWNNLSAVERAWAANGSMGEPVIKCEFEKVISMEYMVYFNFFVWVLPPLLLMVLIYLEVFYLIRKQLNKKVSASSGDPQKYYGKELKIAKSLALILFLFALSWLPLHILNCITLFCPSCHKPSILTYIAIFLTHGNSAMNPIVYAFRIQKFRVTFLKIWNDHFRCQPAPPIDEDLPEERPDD
Protocol: (§1) (1) Agonist Activity Against Adenosine 2a, Adenosine 1 and Adenosine 3 Receptor Subtypes.
(§2) Agonist selectivity of compounds against other human adenosine receptors is determined using Chinese hamster ovary (CHO) cells transfected with the gene for the relevant human adenosine receptor following a method based on that of Castanon and Spevak, 1994. The CHO cells are also transfected with cyclic AMP response elements promoting the gene for secreted placental alkaline phosphatase (SPAP) (Wood, 1995). The effect of test compounds may be determined by their effects on basal levels of cAMP (A2a) or on forskolin-enhanced cAMP (A1 and A3) as reflected by changes in levels of SPAP. EC50 values for compounds may then be determined as a ratio to that of the non-selective agonist N-ethyl carboxamide adenosine (NECA).
(§3) Values given in the Table are EC50 values as a ratio of that of NECA.

Adenosine 3 receptor = target: T2, Adenosine 3 receptor (Homo sapiens, UniProt P0DMS8); test: Agonist activity against adenosine 3 receptor subtype (CHO cells, forskolin-enhanced cAMP, SPAP reporter); conditions: EC50 ratio to NECA; transfected CHO cells, forskolin-enhanced cAMP reflected by SPAP
T2 construct: expressed in transfected cells; host or cells: Chinese hamster ovary (CHO) cells, co-transfected with a CRE-SPAP reporter
T2 sequence (P0DMS8 1-318): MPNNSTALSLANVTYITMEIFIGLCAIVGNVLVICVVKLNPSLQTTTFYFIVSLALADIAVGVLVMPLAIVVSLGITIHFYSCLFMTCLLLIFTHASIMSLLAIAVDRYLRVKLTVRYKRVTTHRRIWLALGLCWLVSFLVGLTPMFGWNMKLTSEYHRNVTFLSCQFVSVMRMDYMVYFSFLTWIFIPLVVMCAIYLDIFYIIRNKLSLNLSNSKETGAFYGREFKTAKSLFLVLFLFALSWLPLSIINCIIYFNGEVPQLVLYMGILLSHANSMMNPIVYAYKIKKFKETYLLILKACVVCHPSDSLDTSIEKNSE
Protocol: as §1, §2, §3

Adenosine 2a receptor = target: T3, Adenosine 2a receptor (Homo sapiens, UniProt P29274); test: Agonist activity against adenosine 2a receptor subtype (CHO cells, cAMP response element/SPAP reporter); conditions: EC50 ratio to NECA; transfected CHO cells, basal cAMP reflected by SPAP
T3 construct: expressed in transfected cells; host or cells: Chinese hamster ovary (CHO) cells, co-transfected with a CRE-SPAP reporter
Protocol: as §1, §2, §3

T3 sequence (P29274 whole entry): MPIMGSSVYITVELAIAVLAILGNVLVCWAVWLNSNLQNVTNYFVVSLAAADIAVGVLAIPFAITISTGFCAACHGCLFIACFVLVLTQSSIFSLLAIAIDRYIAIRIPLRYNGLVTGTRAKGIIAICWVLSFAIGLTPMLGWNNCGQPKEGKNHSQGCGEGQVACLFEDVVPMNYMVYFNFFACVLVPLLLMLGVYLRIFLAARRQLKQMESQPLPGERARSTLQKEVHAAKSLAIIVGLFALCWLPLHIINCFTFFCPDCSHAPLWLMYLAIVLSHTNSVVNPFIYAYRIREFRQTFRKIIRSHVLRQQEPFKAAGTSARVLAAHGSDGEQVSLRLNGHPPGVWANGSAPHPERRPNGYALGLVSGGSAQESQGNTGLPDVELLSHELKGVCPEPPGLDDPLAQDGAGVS

SMILES	A1 (EC50 values as a ratio of that of NECA) (Adenosine 1 receptor)	A3 (EC50 values as a ratio of that of NECA) (Adenosine 3 receptor)	A2a (EC50 values as a ratio of that of NECA) (Adenosine 2a receptor)
CCc1cc([C@H]2O[C@@H](n3cnc4c(NCC(c5ccccc5)c5ccccc5)nc(N[C@H]5CC[C@H](N)CC5)nc43)[C@H](O)[C@@H]2O)on1.O=CO.O=CO (relative stereo) [Example 19, (2R,3R,4S,5S)-2-[2-(trans-4-Amino-cyclohexylamino)-6-(2,2-diphenyl-ethylamino)-purin-9-yl]-5-(3-ethyl-isoxazol-5-yl)-tetrahydro-furan-3,4-diol diformate]	670.2	>295	2.41
CCc1cc([C@H]2O[C@@H](n3cnc4c(NCC(c5ccccc5)c5ccccc5)nc(NCCN5CCCCC5)nc43)[C@H](O)[C@@H]2O)on1.O=CO.O=CO [Example 1, (2R,3R,4S,S)-2-[6-(2,2-Diphenyl-ethylamino)-2-(2-piperidin-1-yl-ethylamino)-purin-9-yl]-5-(3-ethyl-isoxazol-5-yl)-tetrahydro-furan-3,4-diol diformate]	288.5	>436	0.52
CCc1cc([C@H]2O[C@@H](n3cnc4c(NCC(c5ccccc5)c5ccccc5)nc(NCCO)nc43)[C@H](O)[C@@H]2O)on1.O=CO [Example 4, (2R,3R,4S,5S)-2-[6-(2,2-Diphenyl-ethylamino)-2-(2-hydroxy-ethylamino)-purin-9-yl]-5-(3-ethyl-isoxazol-5-yl)-tetrahydro-furan-3,4-diol formate]	109.3	>267	0.92
CCc1cc([C@H]2O[C@@H](n3cnc4c(NC(CC)CC)nc(NCCc5cn(C)cn5)nc43)[C@H](O)[C@@H]2O)on1.O=CO.O=CO [Example 5, (2S,3S,4R,5R)-2-(3-Ethyl-isoxazol-5-yl)-5-{6-(1-ethyl-propylamino)-2-[2-(1-methyl-1H-imidazol-4-yl)-ethylamino]-purin-9-yl}-tetrahydro-furan-3,4-diol diformate]	30.1	>237	0.11
CCc1cc([C@H]2O[C@@H](n3cnc4c(NC(CC)CC)nc(NCCN5CCCCC5)nc43)[C@H](O)[C@@H]2O)on1.O=CO.O=CO [Example 6, (2S,3S,4R,5R)-2-(3-Ethyl-isoxazol-5-yl)-5-[6-(1-ethyl-propylamino)-2-(2-piperidin-1-yl-ethylamino)-purin-9-yl]-tetrahydro-furan-3,4-diol diformate]	66.4	>393	0.49
CCc1cc([C@H]2O[C@@H](n3cnc4c(NCCC(C)(C)C)nc(NCCc5cn(C)cn5)nc43)[C@H](O)[C@@H]2O)on1.O=CO.O=CO [Example 7, (2R,3R,4S,5S)-2-{6-(3,3-Dimethyl-butylamino)-2-[2-(1-methyl-1H-imidazol-4-yl)-ethylamino]-purin-9-yl}-5-(3-ethyl-isoxazol-5-yl)-tetrahydro-furan-3,4-diol diformate]	>=309.4	>312	0.35
CCc1cc(C2OC(n3cnc4c(NC5CCCC5)nc(NCCN5CCCCC5)nc43)C(O)C2O)on1 [Example 8, (2S,3S,4R,5R)-2-(3-Ethyl-isoxazol-5-yl)-5-[6-(cyclopentylamino)-2-(2-piperidin-1-yl)-ethylamino)-purin-9-yl]-tetrahydro-furan-3,4-diol diformate]	49.1	>310	0.67
CCc1cc(C2OC(n3cnc4c(NC5CCSCC5)nc(NCCNC(=N)N)nc43)C(O)C2O)on1 (stereo not drawn) [Example 9, N-{2-[9-[5S-(3-Ethyl-isoxazol-5-yl)-3R,4S-dihydroxy-tetrahydro-furan-2R-yl]-6-tetrahydro-thiopyran-4-ylamino)-9H-purin-2-ylamino]-ethyl}-guanidine diformate]	132.3	>323	2.05
CCc1cc(C2OC(n3cnc4c(Nc5ccc(O)c(F)c5)nc(NCCN5CCCCC5)nc43)C(O)C2O)on1.O=CO.O=CO [Example 10, (2S,3S,4R,5R)-2-(3-Ethyl-isoxazol-5-yl)-5-[6-(3-fluoro-4-hydroxy-phenylamino)-2-(2-piperidin-1-yl-ethylamino)-purin-9-yl]-tetrahydro-furan-3,4-diol diformate]	59.38	>180	2.07
CCc1cc([C@H]2O[C@@H](n3cnc4c(NC5CCOCC5)nc(NCCc5ccccn5)nc43)[C@H](O)[C@@H]2O)on1.O=CO.O=CO [Example 13, (2S,3S,4R,5R)-2-(3-Ethyl-isoxazol-5-yl)-5-[2-(2-pyridin-2-yl-ethylamino)-6-(tetrahydro-pyran-4-ylamino)-purin-9-yl]-tetrahydro-furan-3,4-diol diformate]	61.9	>146	3.03
CCc1cc([C@H]2O[C@@H](n3cnc4c(NC5CCOCC5)nc(NCCN5CCCCC5)nc43)[C@H](O)[C@@H]2O)on1.O=CO.O=CO [Example 14, (2S,3S,4R,5R)-2-(3-Ethyl-isoxazol-5-yl)-5-[2-(2-piperidin-1-yl-ethylamino)-6-(tetrahydro-pyran-4-ylamino)-purin-9-yl]-tetrahydro-furan-3,4-diol diformate]	77.1	>254	4.99

Other lines, results leading:

A1 (EC50 values as a ratio of that of NECA) (Adenosine 1 receptor)	A3 (EC50 values as a ratio of that of NECA) (Adenosine 3 receptor)	A2a (EC50 values as a ratio of that of NECA) (Adenosine 2a receptor)	SMILES
88.9	>545	0.43	CCc1cc(C2OC(n3cnc4c(NCC(c5ccccc5)c5ccccc5)nc(NCCN5CCOCC5)nc43)C(O)C2O)on1 [Example 2, (2R,3R,4S,5S)-2-[6-(2,2-Diphenyl-ethylamino)-2-(2-morpholin-4-yl-ethylamino)-purin-9-yl]-5-(3-ethyl-isoxazol-5-yl)-tetrahydro-furan-3,4-diol diformate.]
231	>375	1.32	CCc1cc(C2OC(n3cnc4c(NCCc5ccccc5)nc(NCCN5CCCCC5)nc43)C(O)C2O)on1.O=CO.O=CO [Example 3, (2R,3R,4S,5S)-2-(3-Ethyl-isoxazol-5-yl)-5-[6-phenethylamino-2-(2-piperidin-1-yl-ethylamino)-purin-9-yl]-tetrahydro-furan-3,4-diol diformate]
32.9	>303	3.66	CCc1cc(C2OC(n3cnc4c(NCCS(=O)(=O)NC)nc(NCCN5CCCCC5)nc43)C(O)C2O)on1 (stereo not drawn) [Example 11, 2-[9-[5S-(3-Ethyl-isoxazol-5-yl)-3R,4S-dihydroxy-tetrahydro-furan-2R-yl]-2-(2-piperidin-1-yl-ethylamino)-9H-purin-6-ylamino]-ethanesulfonic acid methylamide diformate]
260.3	>410	3.39	CCc1cc([C@H]2O[C@@H](n3cnc4c(NC5CCSCC5)nc(NCCN5CCCCC5)nc43)[C@H](O)[C@@H]2O)on1.O=CO.O=CO [Example 12, (2S,3S,4R,5R)-2-(3-Ethyl-isoxazol-5-yl)-5-[2-(2-piperidin-1-yl-ethylamino)-6-(tetrahydro-thiopyran-4-ylamino)-purin-9-yl]-tetrahydro-furan-3,4-diol diformate]
26.05	>146	3.66	CCc1cc(C2OC(n3cnc4c(NC5CCOCC5)nc(NC(CO)Cc5ccccc5)nc43)C(O)C2O)on1 [Example 15, (2S,3S,4R,5R)-2-(3-Ethyl-isoxazol-5-yl)-5-[2-(1S-hydroxymethyl-2-phenyl-ethylamino)-6-(tetrahydro-pyran-4-ylamino)-purin-9yl]-tetrahydro-furan-3,4-diol formate]

Reference: patent US6762170B1, “2-(purin-9-yl)-tetrahydrofuran-3,4-diol derivatives” (SmithKlineBeecham Corporation, priority 1998, dated 2004)
